Results: ChEMBL document CHEMBL5055673, “Direct evidence of edge-to-face CH/π interaction for PAR-1 thrombin receptor activation” (Bioorg Med Chem, 2021)
Numbered stars: 1 amine (or outer) side, 2 acyl side, 3 side chain; on linkers, the order of the positions; unused ones are H or OH. Square brackets hold non-standard residues; d marks the D form. Peptide text beside a SMILES is read from it. Phe(3,4,5-F3) = N[C@@H](Cc1cc(F)c(F)c(F)c1)C(=O)O; Phe(F5) = N[C@@H](Cc1c(F)c(F)c(F)c(F)c1F)C(=O)O; X1 = O=C([C@H](Cc1c(F)c(F)cc(F)c1F)N[*:1])[*:2]; X2 = O=C([C@H](Cc1c(F)cc(F)c(F)c1F)N[*:1])[*:2]; X3 = O=C([C@H](Cc1cc(F)c(F)c(F)c1F)N[*:1])[*:2]; Phe(3,5-F2) = N[C@@H](Cc1cc(F)cc(F)c1)C(=O)O; X4 = O=C([C@H](Cc1ccc(F)c(F)c1F)N[*:1])[*:2]; X5 = O=C([C@H](Cc1cc(F)c(F)cc1F)N[*:1])[*:2]; X7 = O=C([C@H](Cc1c(F)cc(F)cc1F)N[*:1])[*:2]; Phe(2,6-F2) = N[C@@H](Cc1c(F)cccc1F)C(=O)O; X6 = O=C([C@H](Cc1cc(F)ccc1F)N[*:1])[*:2]; Phe(4-F) = N[C@@H](Cc1ccc(F)cc1)C(=O)O; Cha = N[C@@H](CC1CCCCC1)C(=O)O

How the values were obtained:
[1] = target: T1, Proteinase-activated receptor 1 (Homo sapiens) (UniProt P25116); experiment: Activation of PAR-1 in human platelet-rich plasma assessed as induction of platelet aggregation by turbidimetric method relative to S/Phe/FLLRNP; format: cell-based
T1 sequence (whole entry): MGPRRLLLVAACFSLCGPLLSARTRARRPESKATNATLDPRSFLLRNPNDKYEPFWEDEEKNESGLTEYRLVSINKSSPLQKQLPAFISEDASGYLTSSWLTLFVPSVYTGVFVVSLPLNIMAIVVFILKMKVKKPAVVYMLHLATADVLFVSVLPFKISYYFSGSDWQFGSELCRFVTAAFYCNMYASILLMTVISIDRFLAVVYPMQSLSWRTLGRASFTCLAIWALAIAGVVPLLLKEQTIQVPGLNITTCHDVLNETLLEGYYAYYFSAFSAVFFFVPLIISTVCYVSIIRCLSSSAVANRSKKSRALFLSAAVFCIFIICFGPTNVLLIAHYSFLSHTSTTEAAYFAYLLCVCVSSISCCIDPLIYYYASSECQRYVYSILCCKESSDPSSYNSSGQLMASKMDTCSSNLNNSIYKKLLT

[2] = target: T2, Proteinase-activated receptor 1 (Homo sapiens, UniProt P25116); experiment: Activation of PAR-1 in human platelet-rich plasma assessed as induction of platelet aggregation by turbidimetric method
T2 sequence (P25116 whole entry): T1 sequence (whole entry)

[3] = organism: Homo sapiens; experiment: Induction of platelet aggregation in human platelet-rich plasma assessed as decrease in turbidity by turbidimetric method; format: functional
[4] = organism: Homo sapiens; experiment: Induction of platelet aggregation in human platelet-rich plasma assessed as increase in transmissivity by turbidimetric method; format: functional

Molecule | Activity [1] [%] | Activity ([1]; filed as activator) [%] | further results
CC(C)C[C@H](NC(=O)[C@H](Cc1cc(F)c(F)c(F)c1F)NC(=O)[C@@H](N)CO)C(=O)N[C@@H](CC(C)C)C(=O)N[C@@H](CC(N)=O)C(=O)N1CCC[C@H]1C(N)=O (H-S[X3]LLNP-NH2) | 6 | – | –
CC(C)C[C@H](NC(=O)[C@H](Cc1ccc(F)c(F)c1F)NC(=O)[C@@H](N)CO)C(=O)N[C@@H](CC(C)C)C(=O)N[C@@H](CC(N)=O)C(=O)N1CCC[C@H]1C(N)=O (H-S[X4]LLNP-NH2) | – | 98 | –
CC(C)C[C@H](NC(=O)[C@H](CC(C)C)NC(=O)[C@H](Cc1c(F)c(F)c(F)c(F)c1F)NC(=O)[C@@H](N)CO)C(=O)N[C@@H](CCCNC(=N)N)C(=O)N[C@@H](CC(N)=O)C(=O)N1CCC[C@H]1C(N)=O (H-S[Phe(F5)]LLRNP-NH2) | 0 | – | EC50 [2]: Not Active
CC(C)C[C@H](NC(=O)[C@H](CC(C)C)NC(=O)[C@H](Cc1c(F)c(F)cc(F)c1F)NC(=O)[C@@H](N)CO)C(=O)N[C@@H](CCCNC(=N)N)C(=O)N[C@@H](CC(N)=O)C(=O)N1CCC[C@H]1C(N)=O (H-S[X1]LLRNP-NH2) | 0 | – | EC50 [2]: Not Active
H-SALLRNP-NH2 | 0 | – | EC50 [2]: Not Active
CC(C)C[C@H](NC(=O)[C@H](Cc1cc(F)cc(F)c1)NC(=O)[C@@H](N)CO)C(=O)N[C@@H](CC(C)C)C(=O)N[C@@H](CC(N)=O)C(=O)N1CCC[C@H]1C(N)=O (H-S[Phe(3,5-F2)]LLNP-NH2) | 11 | – | –
CC(C)C[C@H](NC(=O)[C@H](Cc1c(F)cccc1F)NC(=O)[C@@H](N)CO)C(=O)N[C@@H](CC(C)C)C(=O)N[C@@H](CC(N)=O)C(=O)N1CCC[C@H]1C(N)=O (H-S[Phe(2,6-F2)]LLNP-NH2) | 11 | – | –
CC(C)C[C@H](NC(=O)[C@H](Cc1cc(F)c(F)c(F)c1)NC(=O)[C@@H](N)CO)C(=O)N[C@@H](CC(C)C)C(=O)N[C@@H](CC(N)=O)C(=O)N1CCC[C@H]1C(N)=O (H-S[Phe(3,4,5-F3)]LLNP-NH2) | 16 | – | –
CC(C)C[C@H](NC(=O)[C@H](CC(C)C)NC(=O)[C@H](CC1CCCCC1)NC(=O)[C@@H](N)CO)C(=O)N[C@@H](CCCNC(=N)N)C(=O)N[C@@H](CC(N)=O)C(=O)N1CCC[C@H]1C(N)=O (H-S[Cha]LLRNP-NH2) | 3 | – | –
H-SFLLRNP-NH2 | – | 100 | Activity [3]: Dose-dependent effect; Activity [4]: Dose-dependent effect
CC(C)C[C@H](NC(=O)[C@H](Cc1c(F)cc(F)cc1F)NC(=O)[C@@H](N)CO)C(=O)N[C@@H](CC(C)C)C(=O)N[C@@H](CC(N)=O)C(=O)N1CCC[C@H]1C(N)=O (H-S[X7]LLNP-NH2) | – | 49 | –
CC(C)C[C@H](NC(=O)[C@H](Cc1cc(F)c(F)cc1F)NC(=O)[C@@H](N)CO)C(=O)N[C@@H](CC(C)C)C(=O)N[C@@H](CC(N)=O)C(=O)N1CCC[C@H]1C(N)=O (H-S[X5]LLNP-NH2) | – | 180 | –
H-SFLLNP-NH2 | – | 100 | –

More lines, main results first:

Activity [1] [%] | Activity ([1]; filed as activator) [%] | Molecule | further results
6 | – | CC(C)C[C@H](NC(=O)[C@H](CC(C)C)NC(=O)[C@H](Cc1cc(F)c(F)c(F)c1F)NC(=O)[C@@H](N)CO)C(=O)N[C@@H](CCCNC(=N)N)C(=O)N[C@@H](CC(N)=O)C(=O)N1CCC[C@H]1C(N)=O (H-S[X3]LLRNP-NH2) | –
34 | – | CC(C)C[C@H](NC(=O)[C@H](CC(C)C)NC(=O)[C@H](Cc1c(F)cc(F)c(F)c1F)NC(=O)[C@@H](N)CO)C(=O)N[C@@H](CCCNC(=N)N)C(=O)N[C@@H](CC(N)=O)C(=O)N1CCC[C@H]1C(N)=O (H-S[X2]LLRNP-NH2) | –
35 | – | CC(C)C[C@H](NC(=O)[C@H](Cc1cc(F)ccc1F)NC(=O)[C@@H](N)CO)C(=O)N[C@@H](CC(C)C)C(=O)N[C@@H](CC(N)=O)C(=O)N1CCC[C@H]1C(N)=O (H-S[X6]LLNP-NH2) | –
– | 250 | CC(C)C[C@H](NC(=O)[C@H](Cc1ccc(F)cc1)NC(=O)[C@@H](N)CO)C(=O)N[C@@H](CC(C)C)C(=O)N[C@@H](CC(N)=O)C(=O)N1CCC[C@H]1C(N)=O (H-S[Phe(4-F)]LLNP-NH2) | –
34 | – | CC(C)C[C@H](NC(=O)[C@H](Cc1c(F)cc(F)c(F)c1F)NC(=O)[C@@H](N)CO)C(=O)N[C@@H](CC(C)C)C(=O)N[C@@H](CC(N)=O)C(=O)N1CCC[C@H]1C(N)=O (H-S[X2]LLNP-NH2) | –
0 | – | CC(C)C[C@H](NC(=O)[C@H](Cc1c(F)c(F)c(F)c(F)c1F)NC(=O)[C@@H](N)CO)C(=O)N[C@@H](CC(C)C)C(=O)N[C@@H](CC(N)=O)C(=O)N1CCC[C@H]1C(N)=O (H-S[Phe(F5)]LLNP-NH2) | –
